Test results published in patent publication US12673947B2 (Cytosinlab Therapeutics Co., Ltd., priority 2020, dated 2026).

Legend:
FLT3 = biological target: T1, FLT3 (Homo sapiens, UniProt P36888); experiment: FLT3 kinase in vitro inhibitory activity experiment (Caliper mobility shift, conversion rate); assay type: biochemical; details: IC50 class, read-out: Enzyme activity FLT3
T1 construct: purchased Carna 08-145
T1 sequence (P36888 27-993): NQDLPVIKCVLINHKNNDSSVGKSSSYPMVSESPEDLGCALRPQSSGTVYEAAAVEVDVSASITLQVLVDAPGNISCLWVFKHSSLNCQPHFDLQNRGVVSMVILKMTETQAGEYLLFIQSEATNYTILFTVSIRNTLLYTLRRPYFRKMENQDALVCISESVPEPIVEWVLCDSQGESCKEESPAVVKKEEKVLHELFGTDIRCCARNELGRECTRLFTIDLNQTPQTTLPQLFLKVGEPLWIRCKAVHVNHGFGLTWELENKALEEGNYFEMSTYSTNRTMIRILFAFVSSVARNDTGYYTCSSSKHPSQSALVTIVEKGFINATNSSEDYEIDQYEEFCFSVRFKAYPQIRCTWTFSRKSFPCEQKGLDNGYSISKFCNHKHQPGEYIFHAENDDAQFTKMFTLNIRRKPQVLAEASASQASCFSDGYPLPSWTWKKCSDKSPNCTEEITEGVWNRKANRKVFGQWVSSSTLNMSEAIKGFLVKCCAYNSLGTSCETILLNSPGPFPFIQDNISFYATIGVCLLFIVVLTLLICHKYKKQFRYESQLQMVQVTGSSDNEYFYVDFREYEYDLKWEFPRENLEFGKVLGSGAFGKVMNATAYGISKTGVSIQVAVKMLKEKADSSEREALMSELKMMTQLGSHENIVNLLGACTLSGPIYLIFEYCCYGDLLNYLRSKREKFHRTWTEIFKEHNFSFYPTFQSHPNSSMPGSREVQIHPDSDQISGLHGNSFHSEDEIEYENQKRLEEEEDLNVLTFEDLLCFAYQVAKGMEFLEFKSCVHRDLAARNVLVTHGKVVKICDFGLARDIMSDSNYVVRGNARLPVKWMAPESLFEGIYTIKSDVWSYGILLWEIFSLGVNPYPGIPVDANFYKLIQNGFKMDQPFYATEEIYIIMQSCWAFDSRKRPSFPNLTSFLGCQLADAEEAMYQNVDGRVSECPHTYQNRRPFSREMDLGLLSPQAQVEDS
Outline: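 Tested in single wells as ten 3-fold dilutions of a 1 μM initial stock. Compound and FLT3 stood 10 min at room temperature; ATP with Kinase substrate 2 was then added for 30 min at room temperature and the reaction stopped. Conversion was measured by Caliper mobility shift, and inhibition was normalised to control-well conversion.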

MV4;11 cells = experiment: MV4;11 in vitro inhibition of proliferation assay (CellTiter-Glo, 72 hours); assay type: cell-based; details: Homo sapiens, MV4-11, 72 h, IC50 class, read-out: Inhibitory activity of cell proliferation MV4;11
Outline: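 IC50 came from four-parameter fitting of inhibition rates, based on CellTiter-Glo luminescence after 72 hours at 37° C. Each well held 2000 MV4;11 cells grown in IMDM with 10% serum. Compounds formed a nine-point, threefold DMSO series starting at 10 uM, tested in triplicate at 0.3% final DMSO.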

SMILES | IC50 (FLT3) [nM] | IC50 (MV4;11 cells) [nM]
CCc1nc2c(N)ncc(-c3cnn(-c4ccncn4)c3)c2nc1N[C@@H]1CC[C@H](O)C1 [Compound 179] | ≤ 10 | ≤ 10
CCc1nc2c(N)ncc(-c3cnn(-c4ccnc(C)n4)c3)c2nc1N[C@@H]1CC[C@H](O)C1 [Compound 180, (1S,3R)-3-((5-amino-3-ethyl-8-(1-(2-methylpyrimidin-4-yl)-1H-pyrazol-4-yl)pyridino[3,4-b]pyrazin-2-yl)amino)cyclopentan-1-ol] | ≤ 10 | ≤ 10
CCc1nc2c(N)ncc(-c3cnn(C4CCN(CC(C)C)CC4)c3)c2nc1N[C@@H]1CC[C@H](O)C1 [Compound 182] | ≤ 10 | ≤ 10
CCc1nc2c(N)ncc(-c3cnn(C4CCN(C(C)CC)CC4)c3)c2nc1N[C@@H]1CC[C@H](O)C1 (some centres unmarked) [Compound 183] | ≤ 10 | ≤ 10
CCc1nc2c(N)ncc(-c3cnn(C4CCN(S(=O)(=O)C(C)C)CC4)c3)c2nc1N[C@@H]1CC[C@H](O)C1 [Compound 187, (1S,3R)-3-((5-amino-3-ethyl-8-(1-(1-(isopropylsulfonyl)piperidin-4-yl)-1H-pyrazol-4-yl)pyridino[3,4b]pyrazin-2-yl)amino)cyclopentan-1-ol] | ≤ 10 | ≤ 10
CCc1nc2c(N)ncc(-c3cnn(C4CCN(S(=O)(=O)CC(C)C)CC4)c3)c2nc1N[C@@H]1CC[C@H](O)C1 [Compound 188] | ≤ 10 | ≤ 10
CCc1nc2c(N)ncc(-c3cnn(C4CCN(C(=O)NC(C)C)CC4)c3)c2nc1N[C@@H]1CC[C@H](O)C1 [Compound 189] | ≤ 10 | ≤ 10
CCc1nc2c(N)ncc(-c3cnn(C4CCN(C(=O)OC(C)(C)C)CC4)c3)c2nc1N[C@@H]1CC[C@H](O)C1 [Compound 190] | ≤ 10 | ≤ 10
CCc1nc2c(N)ncc(-c3cnn(C)c3)c2nc1N[C@@H]1CC[C@H](O)C1 [Compound 194] | ≤ 10 | ≤ 10
CCc1nc2c(N)ncc(-c3cnn(CC(C)(C)O)c3)c2nc1N[C@@H]1CC[C@H](O)C1 [Compound 197] | ≤ 10 | 10 to 100
CCc1nc2c(N)ncc(-c3cnn(C(C)C)c3)c2nc1N[C@@H]1CC[C@H](O)C1 [Compound 201] | ≤ 10 | ≤ 10
CCc1nc2c(N)ncc(-c3cnn(C4CC4)c3)c2nc1N[C@@H]1CC[C@H](O)C1 [Compound 202] | ≤ 10 | ≤ 10
CCc1nc2c(N)ncc(-c3cn[nH]c3)c2nc1N[C@@H]1CC[C@H](O)C1 [Compound 203] | ≤ 10 | 10 to 100
CCOCC1(COCC)CCC(n2cc(-c3cnc(N)c4nc(CC)c(N[C@@H]5CC[C@H](O)C5)nc34)cn2)CC1 [Compound 205] | ≤ 10 | ≤ 10
CCc1nc2c(N)ncc(-c3cnn(C4CCNCC4)c3)c2nc1NC1CCC(O)C1 (centres unmarked) [Compound 206] | ≤ 10 | 10 to 100
CCc1nc2c(N)ncc(-c3cnn(C4CCN(CCO)CC4)c3)c2nc1N[C@@H]1CC[C@H](O)C1 [Compound 207, (1S,3R)-3-((5-amino-3-ethyl-8-(1-(1-(2-hydroxyethyl)piperidin-4-yl)-1H-pyrazol-4-yl)pyridino[3,4-b]pyrazin-2-yl)amino)cyclopentan-1-ol] | ≤ 10 | ≤ 10
CCc1nc2c(N)ncc(-c3cnn(C4CCN(C5CCOCC5)CC4)c3)c2nc1N[C@@H]1CC[C@H](O)C1 [Compound 208] | ≤ 10 | ≤ 10
CCc1nc2c(N)ncc(-c3cnn(C4CCN(C5COC5)CC4)c3)c2nc1N[C@@H]1CC[C@H](O)C1 [Compound 209] | ≤ 10 | ≤ 10
CCc1nc2c(N)ncc(-c3cnn(C4CCN(C5CN(C)C5)CC4)c3)c2nc1N[C@@H]1CC[C@H](O)C1 [Compound 210] | ≤ 10 | ≤ 10
CCc1nc2c(N)ncc(-c3cnn(C4CCN(C5CC5)CC4)c3)c2nc1N[C@@H]1CC[C@H](O)C1 [Compound 211] | ≤ 10 | ≤ 10
CCc1nc2c(N)ncc(-c3cnn(C4CCN(C5CCCC5)CC4)c3)c2nc1N[C@@H]1CC[C@H](O)C1 [Compound 213] | ≤ 10 | ≤ 10
CCc1nc2c(N)ncc(-c3cnn(C4CCN(C)CC4)c3)c2nc1N[C@@H]1CC[C@H](O)C1 [Compound 215] | ≤ 10 | ≤ 10
CCc1nc2c(N)ncc(-c3cnn(C4CCN(CC)CC4)c3)c2nc1N[C@@H]1CC[C@H](O)C1 [Compound 216] | ≤ 10 | ≤ 10
CCc1nc2c(N)ncc(-c3cnn(C4CCN(CC(F)(F)F)CC4)c3)c2nc1N[C@@H]1CC[C@H](O)C1 [Compound 219] | ≤ 10 | ≤ 10
[2H]C([2H])([2H])N1CCC(n2cc(-c3cnc(N)c4nc(CC)c(N[C@@H]5CC[C@H](O)C5)nc34)cn2)CC1 [Compound 220] | ≤ 10 | ≤ 10

Continued, values first:

IC50 (FLT3) [nM] | IC50 (MV4;11 cells) [nM] | SMILES
≤ 10 | ≤ 10 | CCc1nc2c(N)ncc(-c3cnn(-c4ccc(F)cc4F)c3)c2nc1N[C@@H]1CC[C@H](O)C1 [Compound 178]
≤ 10 | ≤ 10 | CCc1nc2c(N)ncc(-c3cnn(C4CCN(CC(C)(C)O)CC4)c3)c2nc1N[C@@H]1CC[C@H](O)C1 [Compound 181]
≤ 10 | ≤ 10 | CCc1nc2c(N)ncc(-c3cnn(C4CCN(C(CC)CC)CC4)c3)c2nc1N[C@@H]1CC[C@H](O)C1 [Compound 184]
≤ 10 | ≤ 10 | CCc1nc2c(N)ncc(-c3cnn(C4CCN(C(=O)C(C)C)CC4)c3)c2nc1N[C@@H]1CC[C@H](O)C1 [Compound 185, 1-(4-(4-(5-amino-3-ethyl-2-(((1R,3S)-3-hydroxycyclopentyl)amino)pyridino[3,4-b]pyrazin-8-yl)-1H-pyrazol-1-yl)piperidin-1-yl)-2-methylpropyl-1-one]
≤ 10 | ≤ 10 | CCc1nc2c(N)ncc(-c3cnn(C4CCN(S(C)(=O)=O)CC4)c3)c2nc1N[C@@H]1CC[C@H](O)C1 [Compound 186]
≤ 10 | ≤ 10 | CCc1nc2c(N)ncc(-c3cnn(C4CCCCC4)c3)c2nc1N[C@@H]1CC[C@H](O)C1 [Compound 192]
≤ 10 | ≤ 10 | CCc1nc2c(N)ncc(-c3cnn(C4CCC(F)(F)CC4)c3)c2nc1N[C@@H]1CC[C@H](O)C1 [Compound 193]
10 to 100 | 10 to 100 | CCc1nc2c(N)ncc(-c3cnn(C(CC)CC)c3)c2nc1N[C@@H]1CC[C@H](O)C1 [Compound 195]
≤ 10 | 10 to 100 | CCc1nc2c(N)ncc(-c3cnn(CCOC)c3)c2nc1N[C@@H]1CC[C@H](O)C1 [Compound 196]
≤ 10 | 10 to 100 | CCc1nc2c(N)ncc(-c3cnn(CCO)c3)c2nc1N[C@@H]1CC[C@H](O)C1 [Compound 198]
≤ 10 | ≤ 10 | CCc1nc2c(N)ncc(-c3cnn(C4COC4)c3)c2nc1N[C@@H]1CC[C@H](O)C1 [Compound 199]
≤ 10 | ≤ 10 | CCc1nc2c(N)ncc(-c3cnn(CC4COC4)c3)c2nc1N[C@@H]1CC[C@H](O)C1 [Compound 200]
≤ 10 | ≤ 10 | CCc1nc2c(N)ncc(-c3cnn(CC4CCN(C)CC4)c3)c2nc1N[C@@H]1CC[C@H](O)C1 [Compound 204]
≤ 10 | ≤ 10 | CCc1nc2c(N)ncc(-c3cnn(C4CCN(C5CCC5)CC4)c3)c2nc1N[C@@H]1CC[C@H](O)C1 [Compound 212]
≤ 10 | ≤ 10 | CCc1nc2c(N)ncc(-c3cnn(C4CCN(C5CCCCC5)CC4)c3)c2nc1N[C@@H]1CC[C@H](O)C1 [Compound 214]
≤ 10 | ≤ 10 | CCc1nc2c(N)ncc(-c3cnn(C4CCN(C(C)C)CC4)c3)c2nc1N[C@@H]1CC[C@H](O)C1 [Compound 217]
≤ 10 | ≤ 10 | CCc1nc2c(N)ncc(-c3cnn(C4CCN(CC(F)F)CC4)c3)c2nc1N[C@@H]1CC[C@H](O)C1 [Compound 218]
≤ 10 | ≤ 10 | [2H]C([2H])([2H])C(N1CCC(n2cc(-c3cnc(N)c4nc(CC)c(N[C@@H]5CC[C@H](O)C5)nc34)cn2)CC1)C([2H])([2H])[2H] [Compound 221]
